Values after ≈ are worked out from the molar mass of the structure shown.
Assay: physchem
Conditions: water, thermodynamic from solid
Experimental: The excess solid was separated off by subsequently centrifuging the solutions twice at 15 000 rpm (20 minutes in each case), producing in all instances a clear, saturated solution of active substance. Subsequently the amount of the guest molecules complexed was determined by means of UV-VIS spectra, the reference sample used in each case being the respective aqueous polymer solution with the same concentration and the same preparation (likewise centrifuged). […] For all of the solubilization experiments evaluated in this way, the measurement error was ±5%.

solubility at 18 h: 1.1 µg/mL (≈ 2.63 µM)
Compound: COCCOC(=O)C1=C(C)NC(C)=C(C(=O)OC(C)C)C1c1cccc([N+](=O)[O-])c1 (stereo not drawn) [nimodipine, 1,4-dihydro-2,6-dimethyl-4-(3′-nitrophenyl)pyridine 3-β-methoxyethyl ester 5-isopropyl ester]

Source: US20090099319A1, “METHOD FOR SOLUBILISING HYDROPHOBIC ACTIVE SUBSTANCES IN AN AQUEOUS MEDIUM” (BASF SE, priority 2006, published 2009)
